Like-named read-outs stand apart in the source and are kept apart here.
How the values were obtained:
[1] = system: 2LMP breast cancer cells; test: Cell growth inhibition, MTT, 2LMP breast cancer cells; type: cell-based, human; details: for IC50: Homo sapiens, 120 h, 5 days incubation, MTT cell viability, read-out: Cellular Activity IC50 (μM) 2LMP
Method: (§1) To test the effect of compounds of the present invention on inhibition of cell growth in human cancer cells, the compounds were administered to two different cancer cell lines. PC-3 prostate cancer cells and 2LMP breast cancer cells were each seeded in 96-well plates with increasing concentrations of inhibitor compounds. The cells were then incubated at 37° C. with 5% CO2 for 5 days, followed by detection of cell viability with MTT. Untreated cells were used as 100% growth.

[2] = target: Bcl-2 recombinant His-fused soluble protein (Homo sapiens, UniProt P10415); test: Bcl-2 fluorescence polarization-based competitive binding assay (Flu-Bid-21 peptide); details: for Ki: FP assay, 0.120 μM Bcl-2, 0.010 μM Flu-Bid-21, 4 hours incubation, Ki calculated from IC50, read-out: Binding Affinity Ki (μM) Bc1-2; for fold decrease of binding affinity to Bcl-2: relative to the parent analogue (15c, 15d compared with 15b; 15j: removal of the big hydrophobic group)
[3] = system: PC-3 prostate cancer cells; test: Cell growth inhibition, MTT, PC-3 prostate cancer cells; type: cell-based, human; details: for IC50: Homo sapiens, 120 h, 5 days incubation, MTT cell viability, read-out: Cellular Activity IC50 (μM) PC3
Method: as §1

[4] = target: T1, human Bcl-xL recombinant His-tagged protein (Homo sapiens, UniProt Q07817); test: Bcl-xL fluorescence polarization-based competitive binding assay (Flu-Bak peptide); details: for Ki: FP assay, 60 nM Bcl-xL, 5 nM Flu-Bak peptide, Ki calculated from IC50; for fold decrease of binding affinity to Bcl-xL: relative to the parent analogue (15d compared with 15b; 15j: removal of the big hydrophobic group)
T1 construct: without the C-terminus hydrophobic tail; His

[5] = read-out: Binding Affinity Ki (μM) Bc1-xL

Bcl-2 recombinant His-fused soluble protein, sequence (P10415 whole entry, the tested form may be a part): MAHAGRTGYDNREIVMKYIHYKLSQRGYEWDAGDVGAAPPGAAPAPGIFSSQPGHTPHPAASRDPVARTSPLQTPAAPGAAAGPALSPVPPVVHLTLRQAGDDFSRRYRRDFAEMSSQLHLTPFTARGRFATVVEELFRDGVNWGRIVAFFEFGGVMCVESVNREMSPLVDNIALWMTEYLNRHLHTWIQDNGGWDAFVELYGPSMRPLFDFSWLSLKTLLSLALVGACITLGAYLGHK
T1 sequence (Q07817 1-209 limits assumed): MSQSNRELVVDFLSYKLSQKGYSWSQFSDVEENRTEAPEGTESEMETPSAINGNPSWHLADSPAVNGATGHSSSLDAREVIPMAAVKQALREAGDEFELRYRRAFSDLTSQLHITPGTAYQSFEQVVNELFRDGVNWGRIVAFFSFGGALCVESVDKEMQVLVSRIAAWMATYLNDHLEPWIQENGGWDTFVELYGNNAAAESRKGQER

Row | IC50 [1] | Ki [2] | IC50 [3] | Ki [4, 5] | fold decrease of binding affinity to Bcl-2 [2] | fold decrease of binding affinity to Bcl-xL [4] | Structure (SMILES) | fold more potent than gossypol, cell growth inhibitory activity, 2LMP ([1]; relative to gossypol) | fold more potent than gossypol, cell growth inhibitory activity, PC3 ([3]; relative to gossypol) | Ki ([4]; Binding Affinity Ki (μM) Bc1-xL)
1 | 1.54 µM | 0.088 µM | 1.82 µM | 1.49 µM |  |  | Cc1oc2c(CC(C)C)c(O)c(O)c(O)c2c(=O)c1-c1ccc2c(C(C)C)c(O)ccc2c1 [Compound 2, 5,6,7-Trihydroxy-3-(6-hydroxy-5-isopropyl-naphthalen-2-yl)-8-isobutyl-2-methyl-chromen-4-one] | 3 to 4 fold | 3 to 4 fold | 
2 | 1.44 µM | 0.13 ± 0.01 µM | 3.09 µM | 1.78 ± 0.13 µM |  |  | Cc1oc2c(CC(C)C)c(O)c(O)c(O)c2c(=O)c1-c1ccc2c(C)c(O)ccc2c1 [Compound 15a, 5,6,7-Trihydroxy-3-(6-hydroxy-5-methyl-naphthalen-2-yl)-8-isobutyl-2-methyl-chromen-4-one] |  |  | 
3 | 2.55 µM | 0.17 ± 0.02 µM | 5.07 µM | 1.71 ± 0.22 µM |  |  | Cc1oc2c(CC(C)C)c(O)c(O)c(O)c2c(=O)c1-c1ccc2cc(O)ccc2c1 [Compound 15b, 5,6,7-Trihydroxy-3-(6-hydroxy-naphthalen-2-yl)-8-isobutyl-2-methyl-chromen-4-one] |  |  | 
4 | 2.08 µM | 0.39 ± 0.17 µM | 3.62 µM | 2.32 ± 0.26 µM | about 2 fold |  | Cc1oc2c(CC(C)C)c(O)c(O)c(O)c2c(=O)c1-c1ccc2ccccc2c1 [Compound 15c, 5,6,7-Trihydroxy-8-isobutyl-2-methyl-3-naphthalen-2-yl-chromen-4-one] |  |  | 
5 | > 30 µM | 1.24 ± 0.13 µM | 20.6 µM | > 14 µM | more than 10 fold | more than 10 fold | COc1c(OC)c(OC)c2c(=O)c(-c3ccc4cc(O)ccc4c3)c(C)oc2c1CC(C)C [Compound 15d, 3-(6-Hydroxy-naphthalen-2-yl)-8-isobutyl-5,6,7-trimethoxy-2-methyl-chromen-4-one] |  |  | 
6 |  | > 12 µM |  | > 14 µM |  |  | CCOc1ccc2cc(-c3c(C)oc4c(CC(C)C)c(OC)c(OC)c(OC)c4c3=O)ccc2c1 [Compound 15e, 3-(6-Ethoxy-naphthalen-2-yl)-8-isobutyl-5,6,7-trimethoxy-2-methyl-chromen-4-one] |  |  | 
7 | 9.3 µM | 0.79 ± 0.03 µM | 23.7 µM | 4.27 ± 0.84 µM |  |  | Cc1oc2c(CC(C)C)c(O)c(O)c(O)c2c(=O)c1-c1ccccc1 [Compound 15f, 5,6,7-Trihydroxy-8-isobutyl-2-methyl-3-phenyl-chromen-4-one] |  |  | 
8 | > 30 µM | 4.63 ± 0.16 µM | 20.1 µM | > 14 µM | > 50 fold | more than 10 fold | Cc1cc(=O)c2c(O)c(O)c(O)c(CC(C)C)c2o1 [Compound 15j, 5,6,7-Trihydroxy-8-isobutyl-2-methyl-chromen-4-one] |  |  | 

Row | Structure (SMILES) | IC50 [1] | Ki [2] | IC50 [3] | Ki [4, 5] | fold decrease of binding affinity to Bcl-2 [2] | fold decrease of binding affinity to Bcl-xL [4] | fold more potent than gossypol, cell growth inhibitory activity, 2LMP ([1]; relative to gossypol) | fold more potent than gossypol, cell growth inhibitory activity, PC3 ([3]; relative to gossypol) | Ki ([4]; Binding Affinity Ki (μM) Bc1-xL)
9 | Cc1cc2c(C(C)C)c(O)c(O)c(C=O)c2c(O)c1-c1c(C)cc2c(C(C)C)c(O)c(O)c(C=O)c2c1O [gossypol, reference compound] | 6 µM |  | 9.7 µM |  |  |  |  |  | 1.97 ± 0.39 µM

— patent publication US20060247305A1, “Chromen-4-one inhibitors of anti-apoptotic Bcl-2 family members and the uses thereof” (Regents of the University of Michigan, priority 2005, published 2006)
